According to patent publication US7892764B2, “System for seizure suppression” (priority 2006, dated 2011):

System: C57BL/6 mice
Assay: In vivo kainic acid (KA)-induced seizure model, EEG and TUNEL staining
Parameters: species or system mouse
Experimental: In an in vivo model of epilepsy (Araki et al., 2002), WT and ASIC1^−/− C57BL/6 mice. 20-25 g, had unilateral microinjection of kainic acid (KA) into the basolateral amygdala nucleus. […] Identical KA injection in ASIC1^−/− mice produced attenuated polyspike EEG activity (total duration: 109.8±30.8 sec, n=6, p<0.01 versus WT control, FIG. 8D).
TUNEL staining. Following cryostat sectioning, slices were air-dried, fixed in 10% formalin for 15 min, washed three times in PBS, permeabilized in 3% Triton X-100 for 20 min, and washed three times in PBS. Slices were subsequently incubated with a reaction mixture that contained FITC-dUTP and 300 U/mL terminal deoxy-transferase (TdT) for 90 min at 37° C. Cultures were then viewed with a fluorescent microscope at an excitation/emission wavelength of 500/550 nm (green) for FITC-TUNEL labeled cells.
Intracerebroventricular injection in mice. The procedure was performed as described in our previous studies (Pignataro et al., 2007; Xiong et al., 2004). A burr hole was drilled through the skull and a cannula inserted in the right lateral ventricle. The cannula was inserted stereotactically at 0.5 mm posterior, 1.0 mm lateral, and 3.0 mm ventral to the bregma, 0.5 μL of aCSF, amiloride, or PcTX1 was infused 60 min before KA injection.
In vivo KA-induced seizure model. A KA-induced in vivo seizure model was implemented as described in our previous studies (Araki et al., 2002). The protocol for seizure-induction in vivo in mice was approved by the Institutional Animal Care and Use Committee of Legacy Research. Adult male wild-type and ASIC1^−/− mice with genomic background of C57BL/6, 20-25 g in weight, were used for seizure induction by unilateral microinjection of KA into the basolateral amygdala nucleus based on stereotactic coordinates (AP −0.94 mm, L −2.85 mm, and V −3.75 mm relative to the Bregma). After anesthesia and catheterization of the femoral vein, animals were placed in a stereotactic frame modified with a headpiece compatible for the mouse (Kopf Instruments) and kept under anesthesia using a mixture of 68.5% N2O, 30% O2, and 1.5% isoflurane. Rectal body temperature was kept at 37±1° C. during and after the operation using either a heating pad or heating lamp (Harvard Instruments, Holiiston, Mass.). Using dental cement (Plastics One, Inc.), three skull-mounted recording electrodes were affixed to mice (Plastics One, Inc., Roanoke, Va.) and a 26-gauge steel guide cannula over the intact dura. […] The EEG was monitored for 30 min using a Grass Electroencephalogram (Model 8-16), and lorazepam (6 mg/kg, i.p.) Was then administered to terminate seizures. The EEG was further monitored for up to 30 min to ensure seizure cessation. The duration of polyspike (type 4) EEG activity for each mouse was calculated blind offline. […]

[1] = icv 0.5 μL aCSF containing PcTX1 500 ng/mL, 60 min before KA
[2] = icv PcTX1 500 ng/mL, 24 hr after KA injection

## Psalmotoxin 1 [PcTX1]
[1]
  duration of polyspike (type-4) EEG activity in 30 min: 128.3 ± 60.3 s
  mice showing polyspike EEG activity: two out of six
[2]
  average TUNEL positive cells in CA3: 21.8±14.1
  mice showing any CA3 injury: two out of six
